Laboratory results published in ChEMBL document CHEMBL5131508, “Photoactivatable o-Hydroxycinnamic Platforms for Bioimaging and Therapeutic Release” (J Med Chem, 2022).

Assays:
[1] = Solubility of compound in acetonitrile/water; format: physicochemical
[2] = Stability of compound assessed as compound degradation under dark condition measured after 20 days by 1H-NMR analysis; format: physicochemical; conditions: time 20 day; read-out: Drug degradation

solubility [1]: Soluble
degraded at 480 h [2]: 6%
Structure (SMILES): C=CCCCCCCCCOC(=O)/C=C/c1cccc(C(C)(C)C)c1O
